According to article PMC8975978, “Bioassay-guided isolation of cytotoxic constituents from the flowers of Aquilaria sinensis” (Natural Products and Bioprospecting, 2022):
In brackets after ≈: the same amount, converted by molar mass. Where two headings read alike, the source gives them in different places.

Legend:
SK-MEL cells = system: SK-MEL cells; parameters: method as in PMID 28754541; conditions: cited from earlier work
[1] = system: human lung adenocarcinoma SPC-A-1 cells; test: MTS cytotoxicity assay, SPC-A-1; format: cell-based
Description: (§1) It had better inhibition against lung cancer cell lines than against other cancer cell lines (Table 1). Thus, the next bioactivity-guided separations were conducted according to the cytotoxicities of the fractions against lung cancer cell lines (A-549, NCI-H520, and SPC-A-1), as well as normal BEAS-2B cells and paclitaxel-resistant lung cancer A549/Taxol cells.
(§2) The cytotoxicity activities were evaluated by MTS assay as previously described.

[2] = system: paclitaxel-resistant A549 (A549/Taxol) cells; test: MTS cytotoxicity assay, A549/Taxol; format: cell-based, human
Description: as §1, §2

[3] = system: human lung squamous cell carcinoma NCI-H520 cells; test: MTS cytotoxicity assay, NCI-H520; format: cell-based
Description: as §1, §2

[4] = system: human lung adenocarcinoma A549 cells; test: MTS cytotoxicity assay, A549; format: cell-based
Description: as §1, §2

[5] = system: human normal bronchial epithelial BEAS-2B cells; test: MTS cytotoxicity assay, normal BEAS-2B; format: cell-based
Description: as §1, §2

[6] = system: SPC-A-1, NCI-H520, A549 and A549/Taxol cell lines; test: MTS cytotoxicity assay, four tested lung cancer cell lines together; format: cell-based, human
Description: Thus, the next bioactivity-guided separations were conducted according to the cytotoxicities of the fractions against lung cancer cell lines (A-549, NCI-H520, and SPC-A-1), as well as normal BEAS-2B cells and paclitaxel-resistant lung cancer A549/Taxol cells.
Isolates 1–6 were evaluated for their cytotoxicities against SPC-A-1, NCI-H520, A549, A549/Taxol, and BEAS-2B cell lines (Table 5).
as §2

[7] = system: human neuroblastoma SH-SY5Y cells; test: MTS cytotoxicity assay, SH-SY5Y; format: cell-based; conditions: Table 1, SH-SY5Y
Description: as §1, §2

[8] = system: human T-cell leukemia MT4 cells; test: MTS cytotoxicity assay, MT4; format: cell-based; conditions: Table 1, MT4
Description: as §1, §2

[9] = system: human ovarian carcinoma SK-OV-3 cells; test: MTS cytotoxicity assay, SK-OV-3; format: cell-based; conditions: Table 1, SK-OV-3
Description: as §1, §2

[10] = system: human cervical cancer HeLa cells; test: MTS cytotoxicity assay, HeLa; format: cell-based; conditions: Table 1, HeLa
Description: as §1, §2

[11] = system: human large cell lung carcinoma NCI-H460 cells; test: MTS cytotoxicity assay, NCI-H460; format: cell-based; conditions: Table 1, NCI-H460
Description: as §1, §2

[12] = system: human breast cancer MDA-MB-231 cells; test: MTS cytotoxicity assay, MDA-MB-231; format: cell-based; conditions: Table 1, MDA-MB-231
Description: as §1, §2

[13] = system: human small cell lung cancer NCI-H446 cells; test: MTS cytotoxicity assay, NCI-H446; format: cell-based; conditions: Table 1, NCI-H446
Description: as §1, §2

[14] = system: human prostate cancer PC-3 cells; test: MTS cytotoxicity assay, PC-3; format: cell-based; conditions: Table 1, PC-3
Description: as §1, §2

[15] = system: human colon cancer SW-480 cells; test: MTS cytotoxicity assay, SW480; format: cell-based; conditions: Table 1, SW480
Description: as §1, §2

[16] = system: human leukemia HL-60 cells; test: MTS cytotoxicity assay, HL-60; format: cell-based; conditions: Table 1, HL-60
Description: as §1, §2

[17] = system: human hepatoma SMMC-7721 cells; test: MTS cytotoxicity assay, SMMC-7721; format: cell-based; conditions: Table 1, SMMC-7721
[18] = system: human breast cancer MCF-7 cells; test: MTS cytotoxicity assay, MCF-7; format: cell-based; conditions: Table 1, MCF-7
Description: as §1, §2

[19] = system: human colon cancer Caco2 cells; test: MTS cytotoxicity assay, Caco2; format: cell-based; conditions: Caco-2, Table 1, Caco2
[20] = Homo sapiens, SPCA1, Table 5, SPC-A-1, read-out: IC50
[21] = Homo sapiens, A549/Taxol, Table 5, A549/Taxol, read-out: IC50
[22] = Homo sapiens, NCI-H520, Table 5, NCI-H520, read-out: IC50
[23] = Homo sapiens, A549, Table 5, A549, read-out: IC50
[24] = Homo sapiens, Table 5, BEAS-2B normal cells, read-out: IC50
[25] = four tested cancer cell lines taken together (SPC-A-1, NCI-H520, A549, A549/Taxol)
[26] = Homo sapiens, Table 5, NCI-H520, read-out: IC50
[27] = Homo sapiens, Table 5, A549, read-out: IC50
[28] = Homo sapiens, BEAS-2B, Table 5, BEAS-2B normal cells, read-out: IC50
[29] = Table 5, SPC-A-1, read-out: IC50
[30] = Table 5, A549/Taxol, read-out: IC50
[31] = Table 5, NCI-H520, read-out: IC50
[32] = Table 5, BEAS-2B normal cells, read-out: IC50

aquilaside B
IC50 (SK-MEL cells): 17 µM

aquilaside C
IC50 (SK-MEL cells): 12 µM

CC(=O)OC(C)(C)C=CC(=O)C(C)(O)C1C(O)CC2(C)C3CC=C4C(CC(=O)OC4(C)C)C3(C)C(=O)CC12C (stereo not shown) [Compound 1, aquilarolide A]
IC50 [1, 20]: 0.56 ± 0.02 µM | IC50 [2, 21]: 0.2 ± 0.01 µM | IC50 [3, 22]: 0.16 ± 0.01 µM | IC50 [4, 23]: 0.35 ± 0.06 µM | IC50 [5, 24]: 17.9 ± 0.3 µM

CC(=O)OC(C)(C)CCC(=O)[C@](C)(O)[C@H]1[C@H](O)C[C@@]2(C)[C@@H]3CC=C4[C@@H](C=C(O)C(=O)C4(C)C)[C@]3(C)C(=O)C[C@]12C [Compound 2, 23,24-dihydrocucurbitacin E]
IC50 [6, 25]: inactive | IC50 [1, 20]: > 40 µM | IC50 [2, 21]: > 40 µM | IC50 [3, 22]: > 40 µM | IC50 [4, 23]: > 40 µM | IC50 [5, 24]: > 40 µM

CC(=O)O[C@H]1C(=O)[C@@]2(C)[C@H]([C@H](OC(=O)c3ccccc3)[C@]3(O)C[C@H](OC(=O)[C@H](O)[C@@H](NC(=O)c4ccccc4)c4ccccc4)C(C)=C1C3(C)C)[C@]1(OC(C)=O)CO[C@@H]1C[C@@H]2O [Paclitaxel]
IC50 ([7]; Homo sapiens, read-out: IC50): 0.008 ± 0.001 µg/mL (≈ 9.37 nM) | IC50 ([8]; Homo sapiens, read-out: IC50): < 0.008 µg/mL | IC50 ([1]; Homo sapiens, SPCA1, Table 1, SPC-A-1, read-out: IC50): < 0.007 µg/mL | IC50 [1, 20]: < 0.008 µM | IC50 ([9]; Homo sapiens, read-out: IC50): < 0.007 µg/mL | IC50 ([10]; Homo sapiens, read-out: IC50): < 0.007 µg/mL | IC50 ([11]; Homo sapiens, read-out: IC50): < 0.007 µg/mL | IC50 ([12]; Homo sapiens, read-out: IC50): < 0.007 µg/mL | IC50 ([13]; Homo sapiens, read-out: IC50): < 0.007 µg/mL | IC50 ([14]; Homo sapiens, read-out: IC50): < 0.007 µg/mL | IC50 ([15]; Homo sapiens, read-out: IC50): < 0.007 µg/mL | IC50 ([16]; Homo sapiens, read-out: IC50): < 0.007 µg/mL | IC50 ([2]; Homo sapiens, A549/Taxol, Table 2, A549/Taxol, read-out: IC50): 0.54 ± 0.09 µg/mL | IC50 ([2]; Homo sapiens, A549/Taxol, Table 3, A549/Taxol, read-out: IC50): 1.45 ± 0.12 µg/mL | IC50 ([2]; Homo sapiens, A549/Taxol, Table 4, A549/Taxol, read-out: IC50): 0.96 ± 0.05 µg/mL | IC50 [2, 21]: 1.8 ± 0.13 µM | IC50 ([3]; Homo sapiens, Table 1, NCI-H520, read-out: IC50): < 0.007 µg/mL | IC50 [3, 26]: < 0.008 µM | IC50 ([4]; Homo sapiens, Table 1, A549, read-out: IC50): < 0.007 µg/mL | IC50 [4, 27]: < 0.008 µM | IC50 ([17]; Homo sapiens, read-out: IC50): 0.15 ± 0.02 µg/mL (≈ 176 nM) | IC50 ([18]; Homo sapiens, MCF7, read-out: IC50): < 0.007 µg/mL | IC50 ([5]; Homo sapiens, BEAS-2B, Table 1, BEAS-2B normal cells, read-out: IC50): 3.66 ± 0.3 µg/mL | IC50 ([5]; Homo sapiens, BEAS-2B, Table 2, BEAS-2B normal cells, read-out: IC50): 1.85 ± 0.19 µg/mL | IC50 ([5]; Homo sapiens, BEAS-2B, Table 3, BEAS-2B normal cells, read-out: IC50): 2.04 ± 0.11 µg/mL | IC50 ([5]; Homo sapiens, BEAS-2B, Table 4, BEAS-2B normal cells, read-out: IC50): 1.94 ± 0.11 µg/mL | IC50 [5, 28]: > 5 µM | IC50 [19]: 0.02 ± 0.02 µg/mL (≈ 23.4 nM)

cucurbitacin B [Compound 4]
IC50 [6, 25]: ≤ 0.03 µM | IC50 [1, 29]: 0.016 µM | IC50 [2, 30]: 0.007 ± 0.001 µM | IC50 [3, 31]: 0.002 µM | IC50 ([4]; Table 5, A549, read-out: IC50): 0.03 µM | IC50 [5, 32]: 14.4 ± 1.36 µM

COc1cc(O)c2c(c1)O[C@H](c1ccc(O)cc1)CC2=O [Compound 5, (−)-(2S)-5,4ʹ-dihydroxy-7-methoxyflavanone]
IC50 [1, 20]: > 40 µM | IC50 [2, 21]: > 40 µM | IC50 [3, 26]: > 40 µM | IC50 [4, 27]: > 40 µM | IC50 [5, 28]: > 40 µM

COc1ccc(CCc2cc(=O)c3cc(OC)c(O)cc3o2)cc1 [Compound 6, 7-hydroxy-6-methoxy-2-[2-(4-methoxyphenyl)ethyl]-4H-1-benzopyran-4-one]
IC50 [1, 20]: 1.13 ± 0.03 µM | IC50 [2, 21]: 0.91 ± 0.01 µM | IC50 [3, 26]: 1.84 ± 0.16 µM | IC50 [4, 27]: 1.52 ± 0.06 µM | IC50 [5, 28]: > 40 µM

CC(=O)OC(C)(C)/C=C/C(=O)[C@](C)(O)[C@H]1[C@H](O)C[C@@]2(C)[C@@H]3CC=C4[C@@H](C=C(O)C(=O)C4(C)C)[C@]3(C)C(=O)C[C@]12C [Compound 3, cucurbitacin E]
IC50 ([6]; Homo sapiens): ≤ 0.03 µM | IC50 ([1]; Table 5, SPC-A-1, listed as Cucurbitacin E, read-out: IC50): ≤ 0.02 µM | IC50 [1, 29]: 0.005 µM | IC50 ([2]; Table 5, A549/Taxol, listed as Cucurbitacin E, read-out: IC50): ≤ 0.02 µM | IC50 [2, 30]: 0.002 µM | IC50 ([3]; Table 5, NCI-H520, listed as Cucurbitacin E, read-out: IC50): ≤ 0.02 µM | IC50 [3, 31]: 0.001 µM | IC50 [4, 23]: ≤ 0.02 µM | IC50 ([4]; Table 5, A549, read-out: IC50): 0.02 µM | IC50 [5, 24]: 3.46 ± 0.13 µM

N.N.[Cl][Pt][Cl] [Cisplatin]
IC50 [7]: 2.85 ± 0.272 µg/mL | IC50 [8]: 0.16 ± 0.01 µg/mL | IC50 ([1]; Table 1, SPC-A-1): 1.76 ± 0.40 µg/mL | IC50 ([1]; Table 2, SPC-A-1): 3.10 ± 0.13 µg/mL | IC50 ([1]; Table 3, SPC-A-1): 3.06 ± 1.07 µg/mL | IC50 ([1]; Table 4, SPC-A-1): 2.49 ± 0.07 µg/mL | IC50 [1, 29]: 21.4 ± 0.35 µM | IC50 [9]: 3.67 ± 0.97 µg/mL | IC50 [10]: 1.14 ± 0.152 µg/mL | IC50 [11]: 5.29 ± 0.48 µg/mL | IC50 [12]: 3.16 ± 0.97 µg/mL | IC50 [13]: 3.78 ± 0.79 µg/mL | IC50 [14]: 1.38 ± 0.23 µg/mL | IC50 [15]: 2.00 ± 0.52 µg/mL | IC50 [16]: 1.97 ± 1.30 µg/mL | IC50 ([2]; Table 2, A549/Taxol): 4.29 ± 0.26 µg/mL | IC50 ([2]; Table 3, A549/Taxol): 3.41 ± 0.47 µg/mL | IC50 ([2]; Table 4, A549/Taxol): 4.13 ± 0.86 µg/mL | IC50 [2, 30]: 15 ± 0.93 µM | IC50 ([3]; Table 1, NCI-H520): 6.69 ± 1.46 µg/mL | IC50 ([3]; Table 2, NCI-H520): 3.12 ± 0.18 µg/mL | IC50 ([3]; Table 3, NCI-H520): 3.75 ± 0.52 µg/mL | IC50 ([3]; Table 4, NCI-H520): 3.11 ± 0.22 µg/mL | IC50 [3, 31]: 12 ± 0.6 µM | IC50 ([4]; Table 1, A549): 3.83 ± 0.79 µg/mL | IC50 ([4]; Table 2, A-549): 4.99 ± 0.08 µg/mL | IC50 ([4]; Table 3, A549): 3.02 ± 0.59 µg/mL | IC50 ([4]; Table 4, A549): 2.28 ± 0.57 µg/mL | IC50 ([4]; Table 5, A549, read-out: IC50): 13.5 ± 0.64 µM | IC50 [17]: 1.53 ± 0.11 µg/mL | IC50 [18]: 2.00 ± 0.93 µg/mL | IC50 ([5]; Table 1, BEAS-2B normal cells): 9.14 ± 1.41 µg/mL | IC50 ([5]; Table 2, BEAS-2B normal cells): 7.36 ± 0.56 µg/mL | IC50 ([5]; Table 3, BEAS-2B normal cells): > 12 µg/mL | IC50 ([5]; Table 4, BEAS-2B normal cells): 8.86 ± 1.32 µg/mL | IC50 [5, 32]: 34.9 ± 1.16 µM
